The values that follow come from patent US4720497A, “6-purinyl N-/2-chloroethyl/carbamate and thiocarbamate and process for the preparation thereof” (SPOFA, Spojene Podniky pro Zdravotnickou Vyrobu, priority 1984, dated 1988).

Where two headings read alike, the source gives them in different places.

One assay concerns Zajdel ascitic hepatoma. As to the kind of experiment: Survival of rats with implanted Zajdel ascitic hepatoma (Example 5). In kind it is in vivo, female Wistar rats. Conditions: Wistar rats. The text has this:
The antineoplastic activity of the compounds of the invention has been investigated by testing the compounds of the chemical group "in vivo" against experimental rodent tumors such as Crocker's sarcoma (S180), solid-type Ehrlich carcinoma (STE), kreb's ascites tumor (Kr2), all maintained in mice H, Gardner lymphosarcoma (LsG, C3H mice), P388 and L1210 leukemias (DBA2 mice), Zajdela ascites hapatoma (ZAH, Wistar rats), Yoshida ascites reticulosarcoma (Y, Wistar rats) and B16 melanoma (C57B16 mice) in experiments according to Jelinek, V. (Neoplasma 12, 469 (1969); ibid. 7, 146 (1960) and "in vitro" experiments using radioactive precursors of nucleic acids and proteins according to Miko, M. et al. (Cancer Res. 39, 4242 (1979); Neoplasma 26, 449 (1979); ibid. 16, 161--1969) with minor modifications (Mattern J.: Studies on the Drug Sensitivity of Short Term Cultured Tumor Cell Suspensions. In "Human Tumors in Short Term Culture" (Dendy, P. P. ed.), p. 301, Academic Press 1976). Therapeutic synergism has been studied by the method of Carter, W. H. et al. (cf. Cancer Res. 42, 2963--1982). […]

The test system of another assay is Ehrlich tumor (STE). The experiment in a line: Antitumor activity against implanted Ehrlich tumor (STE) in mice, tumor weight (Example 4). In kind it is in vivo, female mice H. Conditions: mice H. The source says:
(§1) The antineoplastic activity of the compounds of the invention has been investigated by testing the compounds of the chemical group "in vivo" against experimental rodent tumors such as Crocker's sarcoma (S180), solid-type Ehrlich carcinoma (STE), kreb's ascites tumor (Kr2), all maintained in mice H, Gardner lymphosarcoma (LsG, C3H mice), P388 and L1210 leukemias (DBA2 mice), Zajdela ascites hapatoma (ZAH, Wistar rats), Yoshida ascites reticulosarcoma (Y, Wistar rats) and B16 melanoma (C57B16 mice) in experiments according to Jelinek, V. (Neoplasma 12, 469 (1969); ibid. 7, 146 (1960) and "in vitro" experiments using radioactive precursors of nucleic acids and proteins according to Miko, M. et al. (Cancer Res. 39, 4242 (1979); Neoplasma 26, 449 (1979); ibid. 16, 161--1969) with minor modifications (Mattern J.: Studies on the Drug Sensitivity of Short Term Cultured Tumor Cell Suspensions. In "Human Tumors in Short Term Culture" (Dendy, P. P. ed.), p. 301, Academic Press 1976). Therapeutic synergism has been studied by the method of Carter, W. H. et al. (cf. Cancer Res. 42, 2963--1982).
Sixty female mice H weighing approximately 20 g are divided into three groups: one control group and two experimental groups of 20 animals each. A lethal dose of the Crocker tumor (S180) homogenate is implanted subcutaneously in all the animals. The experimental groups are treated with the substance Ia in water suspension. The suspension contains the substance Ia in such an amount that a dose 0.4 or 0.2 ml of the suspension p.o. is equal to a dose 200 or 100 mg Ia/kg. This dose is administered to the experimental animals once a day, eight times altogether, starting on the fifth day after the implantation. On the fourteenth day after the implantation, a half of the animals in each group is sacrificed in ether anaesthesia, and tumors are removed and weighed. The remaining animals are left to monitor the time of death.

The test system of assay [1] is Yoshida ascitic tumor cells. As to the kind of experiment: Cytotoxicity in vitro: initial velocity of 3H/14C precursor incorporation in Yoshida ascitic tumor cells (Example 11). In kind it is cell-based. Conditions: for IC50: Rattus norvegicus, YOSHIDA.
From the text: as §1
In analogous experiments, the degree of influence on the initial velocity of the incorporation of ^3 H from 5-iodo-2'-deoxy-(6-^3 H)uridine or that of ^14 C from a mixture of L-(U-^14 C)-aminoacids to the fraction of Yoshida ascitic tumor cells insoluble in trichloroacetic acid serves as the measure of cytotoxicity. The value IC50 is the concentration of a substance that reduces the initial velocity of the ^3 H or ^14 C incorporation down to 50% of the noninfluenced control cells.

The subject of another assay is Crocker tumor (S180). As to the kind of experiment: Antitumor activity against Crocker tumor (S180) in mice, tumor weight (Example 3). In kind it is in vivo, female mice H. Conditions: S180, mice H, p.o. 200 or 100 mg/kg once a day, eight times; day 14.
From the text: as §1
Sixty female mice H weighing approximately 20 g are divided into three groups: one control group and two experimental groups of 20 animals each. A lethal dose of the Crocker tumor (S180) homogenate is implanted subcutaneously in all the animals. […]

In the next assay the test system is Ehrlich Carcinoma cells. The experiment in a line: Cytotoxicity in vitro: 14C precursor incorporation in Ehrlich Carcinoma cells (Example 10). In kind it is cell-based. Conditions: for IC50: Ehrlich, read-out: ID50 (14C incorporation).
From the text: as §1
The degree of influence on the incorporation of ^14 C from adenine-^14 C and valine-^14 C to the fraction of Ehrlich Carcinoma cells insoluble in trichloroacetic acid serves as the measure of cytotoxicity. The value ID50 is the concentration of a cytostatic that reduces the ^14 C incorporation down to 50% of the non-influencedcontrol cells.

The subject of the next assay is Yoshida tumor. As to the kind of experiment: Survival of rats with implanted Yoshida tumor (Example 6). In kind it is in vivo, female Wistar rats. Conditions: Wistar rats.
From the text: as §1
Additionally, the compounds of the present invention are useful in increasing survival time of the suitable biological subjects, namely mice and rats bearing tumors STE, ZAH and/or Y: because of the lethal nature of the test system employed, the antitumor effect of the compounds is illustrated by a side comparison of the survival time of treated animals (survival for a longer time) with the untreated control groups of animals (cf. Examples 5, 6, and 7). In these typical experiments, ten animals are in the experimental groups, and the treated groups of animals survive for a longer time than the untreated controls.
Fifty infantile female Wistar rats weighing approximately 60 g are divided into five groups: one control and four experimental ones, 10 animals each. A lethal dose of the tumor ascites from Zajdel ascitic hepatoma is implanted intraperitoneally in all the animals. The experimental groups are treated with the substance Ia in water suspension. The suspension contains the substance Ia in such an amount that a dose of 0.4 or 0.2 ml of the suspension p.o. is equal to a dose of 200 or 100 mg Ia/Kg. This dose is applied to the experimental animals once a day, five times altogether, starting on the first day after the implantation.

The subject of another assay is Yoshida ascitic sarcoma. As to the kind of experiment: Therapeutic synergism with Benfluron, survival of rats with Yoshida ascitic sarcoma (Example 9). Conditions: for Average period of survival (days): geometric average (fiducial limits P=0.95). In kind it is in vivo, female Wistar rats.
From the text: as §1
One hundred and twenty seven infantile female Wistar rats weighing 50-60 g are divided into sixteen groups: one control group of 25 animals and fifteen experimental groups of 6 to 7 animals. A lethal dose of the tumor ascites from Yoshida ascitic sarcoma is implanted intraperitoneally in all the animals. The experimental groups are treated with the substance Ia in water suspension, water solution of a cytostatic Benfluron (CAS 80427-58-3), or a combination of both the substances. The suspension or solution contains the substances in such a concentration that doses of 0.4 or 0.2 and 0.1 ml of the suspension/solution p.o. are equal to doses of 200 or 100 and 50 mg Ia/kg or to doses of 160, 80 or 40 mg of Benfluron/kg. Doses of the substance Ia are administered to the experimental animals once a day, four times altogether, starting on the first day after the tumor implantation. Benfluron is administered only once, on the fourth day after the tumor implantation, 7 hours after the last dose of the substance Ia.

Consider `O=C(NCCCl)Sc1ncnc2nc[nH]c12` [Substance Ia, 6-[N-(2-Chloroethyl)carbamoyl]thiopurine], for which the “Period of survival (% of control)” value is on record as 117 % of control in the assay with Zajdel ascitic hepatoma (p.o. 5 × 100 mg/kg), 126 % of control in the assay on Zajdel ascitic hepatoma (p.o. 5 × 200 mg/kg), 134 % of control in the assay on Yoshida tumor (p.o. 5 × 100 mg/kg (Example 6)) and 127 % of control in the assay on Yoshida tumor (p.o. 5 × 200 mg/kg (Example 6)). Moreover, the “Tumor weight (% of control)” value was 80 % of control in the assay on Ehrlich tumor (STE) (p.o. 8 × 100 mg/kg) and 70 % of control with Ehrlich tumor (STE) (p.o. 8 × 200 mg/kg). In addition, the IC50 amounted to 25 µM in assay [1] (precursor 5-iodo-2'-deoxy(6-3H)uridine, read-out: IC50 (initial velocity of 3H incorporation)); 26 µM in assay [1] (precursor L-(U-14C)aminoacids, read-out: IC50 (initial velocity of 14C incorporation)); 94 µM in the assay with Ehrlich Carcinoma cells (precursor adenine-14C); 155 µM in the assay on Ehrlich Carcinoma cells (precursor valine-14C). Besides, the “effectiveness vs thioguanine and/or 6-mercaptopurine” value in assay [1] (Yoshida ascites tumor cells, in words) is reported as “more effective”; with Ehrlich Carcinoma cells (Ehrlich ascites carcinoma cells, in words), “more effective”. Moreover, in the assay on Crocker tumor (S180), the “average values of the tumor weight vs non-treated control” value is listed as “Statistically significantly lower average values of the tumor weight”. Further, the results for the “Average period of survival (% of control)” value in the assay with Yoshida ascitic sarcoma (Ia 4 × 50 mg/kg p.o.), with Yoshida ascitic sarcoma (Ia 4 × 100 mg/kg p.o.) and in the assay with Yoshida ascitic sarcoma (Ia 4 × 200 mg/kg p.o.) were 125 % of control, 149 % of control and 121 % of control, respectively. In addition, the “Average period of survival (days)” value is 9.20 (7.6; 11.1) days with Yoshida ascitic sarcoma (Ia 4 × 50 mg/kg p.o.), 10.94 (9.0; 13.3) days with Yoshida ascitic sarcoma (Ia 4 × 100 mg/kg p.o.) and 8.86 (7.4; 10.7) days in the assay on Yoshida ascitic sarcoma (Ia 4 × 200 mg/kg p.o.). Moreover, the “survival vs control group” value with Yoshida ascitic sarcoma (Yoshida ascitic sarcoma, in words, over 29 days) is “survive longer”.
